Several values for one entry are separate records, joined by “and”; a condition that tells them apart may be missing. Equal entries are not always repeated.
Test system: Long Evans rats
Assay: Behavioral satiety sequence (BSS)
Format: in vivo, Long Evans rat
Excerpt: The Behavioural Satiety Sequence (BSS) is a technique used to evaluate physiological satiety. It is based on the expression of a sequence of behaviors including eating, grooming, locomotor activity, followed by resting, which are typically observed in rodents post-ingestion (Halford et al, 1998, Pharmacology Biochemistry and Behaviour. 61(2): 159-168). The BSS is a widely used model for determining the effects of novel pharmaceuticals on food intake and measures of satiety in rodents (Oliveira et al, 2011, Revista de Nutrição. 24(4) 619-628), and to discriminate the cause of reduced food intake following pharmacological manipulation. For example, treatments that may reduce food intake by non-specific mechanisms, such as immobility, malaise, and taste adulteration, will disrupt this sequence (Halford et al, 1998, Pharmacology Biochemistry and Behaviour. 61(2): 159-168).
Specifically, 12 male Long-Evans rats were food-deprived for 22 h with a 2 h feeding period each day. Rats were trained to consume daily food during the 2 h period over 25 days. The testing phase was initiated once the rats consistently consumed 16-18 g of food per day with ≤10% variance in amount of feed consumed. Feeding took place in designated individual boxes in a quiet room separate from the housing room. Continuous remote monitoring via video camera during feeding was used to assess the BSS. Food consumption was measured by weighing the total available food before and after the 2 h feeding window, correcting for spillage. Lorcaserin (1 mg/kg) was included as a reference control (Higgins et al, 2011, Neuropsychopharmacology. 37(5): 1177-1191). Subjects were tested using a repeated-measures, Latin square design with 2-3 days wash-out between treatment cycles.
On scheduled test days, animals were monitored remotely via video camera during the feeding access period. The occurrence of four mutually exclusive behaviors (eating/drinking, grooming, active, rest) were individually scored. Over the 2 h feeding period, behaviors were assessed every 30 seconds. Scores were compiled into 23 5 min timebins (timebin 24 was removed due to early removal of animals) and the frequency of each behavior within each timebin was calculated to determine a temporal frequency of each measure (Rodgers et al, 2010, Pharmacology Biochemistry and Behaviour. 97: 3-14). Percentage time was plotted for each behavioral sequence in each timebin to compare between treatment groups (Higgins et al, 2011, Neuropsychopharmacology. 37(5): 1177-1191).

[1] = Compound I-19 3 mg/kg i.p., raw score per animal
[2] = Compound I-19 3 mg/kg, AVG of 12 animals
[3] = Compound I-19 3 mg/kg, raw score of individual animals LT-1 to LT-12
[4] = Compound I-19 i.p., first dose group after lorcaserin (dose not given), raw score per animal

## Clc1ccc(C2(OCC3OCCO3)c3ccccc3C3=NCCN32)cc1 (stereo not shown) [Compound I-19]
[1]
  BSS scoring R (resting), Time Bin 4 (15-20 TOTAL): 1 (2×) and 0 (10×)
  BSS scoring R (resting), Time Bin 5 (20-25 TOTAL): 0 (10×) and 1 (2×)
  BSS scoring R (resting), Time Bin 6 (25-30 TOTAL): 0 (9×) and 1 and 2 (2×)
[2]
  BSS scoring A (active), Time Bin 13 (60-65 TOTAL), AVG: 0.18
  BSS scoring A (active), Time Bin 14 (65-70 TOTAL), AVG: 0.15
  BSS scoring A (active), Time Bin 15 (70-75 TOTAL), AVG: 0.28
  BSS scoring A (active), Time Bin 16 (75-80 TOTAL), AVG: 0.03
  BSS scoring A (active), Time Bin 17 (80-85 TOTAL), AVG: 0.18
  BSS scoring A (active), Time Bin 18 (85-90 TOTAL), AVG: 0.12
  BSS scoring E (eating/drinking), Time Bin 13 (60-65 TOTAL), AVG: 0.72
  BSS scoring E (eating/drinking), Time Bin 14 (65-70 TOTAL), AVG: 0.63
  BSS scoring E (eating/drinking), Time Bin 15 (70-75 TOTAL), AVG: 0.53
  BSS scoring E (eating/drinking), Time Bin 16 (75-80 TOTAL), AVG: 0.71
  BSS scoring E (eating/drinking), Time Bin 17 (80-85 TOTAL), AVG: 0.63
  BSS scoring E (eating/drinking), Time Bin 18 (85-90 TOTAL), AVG: 0.65
  BSS scoring G (grooming), Time Bin 13 (60-65 TOTAL), AVG: 0.02
  BSS scoring G (grooming), Time Bin 14 (65-70 TOTAL), AVG: 0.02
  BSS scoring G (grooming), Time Bin 15 (70-75 TOTAL), AVG: 0.06
  BSS scoring G (grooming), Time Bin 16 (75-80 TOTAL), AVG: 0.05
  BSS scoring G (grooming), Time Bin 17 (80-85 TOTAL), AVG: 0.03
  BSS scoring G (grooming), Time Bin 18 (85-90 TOTAL), AVG: 0.07
  BSS scoring R (resting), Time Bin 13 (60-65 TOTAL), AVG: 0.09
  BSS scoring R (resting), Time Bin 14 (65-70 TOTAL), AVG: 0.21
  BSS scoring R (resting), Time Bin 15 (70-75 TOTAL), AVG: 0.13
  BSS scoring R (resting), Time Bin 16 (75-80 TOTAL), AVG: 0.22
  BSS scoring R (resting), Time Bin 17 (80-85 TOTAL), AVG: 0.17
  BSS scoring R (resting), Time Bin 18 (85-90 TOTAL), AVG: 0.17
[3]
  BSS scoring A (active), Time Bin 13 (60-65 TOTAL): 3 and 0 (3×) and 2 (4×) and 1 (2×) and 4 (2×)
  BSS scoring A (active), Time Bin 14 (65-70 TOTAL): 8 and 0 (5×) and 1 (5×) and 5
  BSS scoring A (active), Time Bin 15 (70-75 TOTAL): 3 (2×) and 0 (5×) and 5 (3×) and 4 and 9
  BSS scoring A (active), Time Bin 16 (75-80 TOTAL): 0 (10×) and 1 and 2
  BSS scoring A (active), Time Bin 17 (80-85 TOTAL): 0 (6×) and 8 and 2 and 3 and 4 (2×) and 1
  BSS scoring A (active), Time Bin 18 (85-90 TOTAL): 0 (7×) and 2 and 3 (2×) and 1 and 5
  BSS scoring E (eating/drinking), Time Bin 13 (60-65 TOTAL): 6 (3×) and 8 (4×) and 7 and 9 and 10 (2×) and 0
  BSS scoring E (eating/drinking), Time Bin 14 (65-70 TOTAL): 2 (2×) and 8 (2×) and 9 (3×) and 10 and 3 (2×) and 7 and 5
  BSS scoring E (eating/drinking), Time Bin 15 (70-75 TOTAL): 7 (3×) and 9 and 8 and 5 (2×) and 0 (3×) and 6 and 10
  BSS scoring E (eating/drinking), Time Bin 16 (75-80 TOTAL): 10 (4×) and 8 (3×) and 3 and 0 and 2 and 9 and 7
  BSS scoring E (eating/drinking), Time Bin 17 (80-85 TOTAL): 7 and 2 and 8 and 10 (4×) and 0 (2×) and 3 and 6 and 9
  BSS scoring E (eating/drinking), Time Bin 18 (85-90 TOTAL): 10 (4×) and 8 (2×) and 5 (2×) and 0 (2×) and 9 and 3
  BSS scoring G (grooming), Time Bin 13 (60-65 TOTAL): 1 (2×) and 0 (10×)
  BSS scoring G (grooming), Time Bin 14 (65-70 TOTAL): 0 (11×) and 2
  BSS scoring G (grooming), Time Bin 15 (70-75 TOTAL): 0 (8×) and 1 (3×) and 4
  BSS scoring G (grooming), Time Bin 16 (75-80 TOTAL): 0 (8×) and 1 (3×) and 3
  BSS scoring G (grooming), Time Bin 17 (80-85 TOTAL): 0 (10×) and 1 and 2
  BSS scoring G (grooming), Time Bin 18 (85-90 TOTAL): 0 (8×) and 4 and 1 (2×) and 2
  BSS scoring R (resting), Time Bin 13 (60-65 TOTAL): 0 (8×) and 2 (2×) and 1 and 6
  BSS scoring R (resting), Time Bin 14 (65-70 TOTAL): 0 (4×) and 2 (3×) and 1 (2×) and 6 and 7 and 4
  BSS scoring R (resting), Time Bin 15 (70-75 TOTAL): 0 (8×) and 2 and 5 (2×) and 3
  BSS scoring R (resting), Time Bin 16 (75-80 TOTAL): 0 (4×) and 1 (4×) and 3 and 9 and 2 and 8
  BSS scoring R (resting), Time Bin 17 (80-85 TOTAL): 3 (2×) and 0 (7×) and 1 and 8 and 5
  BSS scoring R (resting), Time Bin 18 (85-90 TOTAL): 0 (7×) and 2 (2×) and 6 and 9 and 1
Compound I-19 0.1-3 mg/kg IP, lorcaserin 1 mg/kg SC
  effect on the behavioral satiety sequence (BSS): did not affect the BSS compared to vehicle pretreatment
[4]
  BSS scoring A (active), Time Bin 7 (30-35 TOTAL): 2 and 0
  BSS scoring A (active), Time Bin 8 (35-40 TOTAL): 2 and 0
  BSS scoring A (active), Time Bin 9 (40-45 TOTAL): 1 and 2
  BSS scoring A (active), Time Bin 10 (45-50 TOTAL): 1
  BSS scoring A (active), Time Bin 11 (50-55 TOTAL): 1 and 0
  BSS scoring A (active), Time Bin 12 (55-60 TOTAL): 1 and 2
  BSS scoring E (eating/drinking), Time Bin 7 (30-35 TOTAL): 6 and 9
  BSS scoring E (eating/drinking), Time Bin 8 (35-40 TOTAL): 6 and 9
  BSS scoring E (eating/drinking), Time Bin 9 (40-45 TOTAL): 9 and 6
  BSS scoring E (eating/drinking), Time Bin 10 (45-50 TOTAL): 7
  BSS scoring E (eating/drinking), Time Bin 11 (50-55 TOTAL): 8 and 10
  BSS scoring E (eating/drinking), Time Bin 12 (55-60 TOTAL): 5 and 8
  BSS scoring G (grooming), Time Bin 7 (30-35 TOTAL): 0 and 1
  BSS scoring G (grooming), Time Bin 8 (35-40 TOTAL): 1
  BSS scoring G (grooming), Time Bin 9 (40-45 TOTAL): 0 and 1
  BSS scoring G (grooming), Time Bin 10 (45-50 TOTAL): 1
  BSS scoring G (grooming), Time Bin 11 (50-55 TOTAL): 0
  BSS scoring G (grooming), Time Bin 12 (55-60 TOTAL): 1 and 0
  BSS scoring R (resting), Time Bin 7 (30-35 TOTAL): 2 and 0
  BSS scoring R (resting), Time Bin 8 (35-40 TOTAL): 1 and 0
  BSS scoring R (resting), Time Bin 9 (40-45 TOTAL): 0 and 1
  BSS scoring R (resting), Time Bin 10 (45-50 TOTAL): 1
  BSS scoring R (resting), Time Bin 11 (50-55 TOTAL): 1 and 0
  BSS scoring R (resting), Time Bin 12 (55-60 TOTAL): 3 and 0

Source: US20250108038A1 (priority 2023, published 2025)
